From patent publication US8445492B2, “Method for inhibiting growth of cancer cells and cell telomere and diseases of cell proliferation by using heteroannelated anthraquinone derivative compounds” (National Defense Medical Center, priority 2008, dated 2013)
Like-named read-outs stand apart in the source and are kept apart here.

Tests used:
HOP-62 [1] = assay: in vitro test at 1.0×10^−5 M, Non-small cell lung cancer cell; format: cell-based; conditions: 1.0×10^−5 molal concentration (M)
HCC-2998 = assay: in vitro test at 1.0×10^−5 M, Colorectal cancer cell; format: cell-based; conditions: 1.0×10^−5 molal concentration (M)
LOX IMV1 = assay: in vitro test at 1.0×10^−5 M, Skin cancer cell; format: cell-based; conditions: 1.0×10^−5 molal concentration (M)
[2] = tested on: different cancer cell lines; assay: in vitro test at 1.0×10^−5 M, summary over the cell lines; format: cell-based; conditions: 1.0×10^−5 molal concentration (M)
HOP-62 [3] = tested on: HOP-62

O=C1c2ccccc2C(=O)c2c1ccc1nsnc21 [No. 22, Anthra[2,1-c][1,2,5]thiadiazole-6,11-dione]
inhibition effect on cancer cell line (Table 2 value) (HOP-62 [1]): −100.00
inhibition effect on cancer cell line (Table 2 value) (HCC-2998): −50.00
inhibition effect on cancer cell line (Table 2 value) (LOX IMV1): −50.6
Mean [2]: 2.68
TGI (CCRF-CEM; CCRF-CEM): >1.00E−4
Percent Growth (CCRF-CEM; Log10 Concentration −4.0): 2%
Percent Growth (CCRF-CEM; Log10 Concentration −5.0): 2%
Percent Growth (CCRF-CEM; Log10 Concentration −6.0): 74%
Percent Growth (CCRF-CEM; Log10 Concentration −7.0): 90%
Percent Growth (CCRF-CEM; Log10 Concentration −8.0): 97%
TGI (HL-60(TB); HL-60(TB)): 5.13E−6
Percent Growth (HL-60(TB); Log10 Concentration −4.0): −43%
Percent Growth (HL-60(TB); Log10 Concentration −5.0): −38%
Percent Growth (HL-60(TB); Log10 Concentration −6.0): 93%
Percent Growth (HL-60(TB); Log10 Concentration −7.0): 102%
Percent Growth (HL-60(TB); Log10 Concentration −8.0): 103%
TGI (K-562; K-562): 4.92E−5
Percent Growth (K-562; Log10 Concentration −4.0): −8%
Percent Growth (K-562; Log10 Concentration −5.0): 19%
Percent Growth (K-562; Log10 Concentration −6.0): 83%
Percent Growth (K-562; Log10 Concentration −7.0): 96%
Percent Growth (K-562; Log10 Concentration −8.0): 101%
Percent Growth (MOLT-4; Log10 Concentration −4.0): −38%
Percent Growth (MOLT-4; Log10 Concentration −5.0): −40%
Percent Growth (MOLT-4; Log10 Concentration −6.0): 73%
Percent Growth (MOLT-4; Log10 Concentration −7.0): 99%
Percent Growth (MOLT-4; Log10 Concentration −8.0): 97%
TGI (MOLT-4; MOLT-4): 4.43E−6
Percent Growth (RPMI-8226; Log10 Concentration −4.0): −20%
Percent Growth (RPMI-8226; Log10 Concentration −6.0): 61%
Percent Growth (RPMI-8226; Log10 Concentration −7.0): 94%
Percent Growth (RPMI-8226; Log10 Concentration −8.0): 100%
TGI (RPMI-8226; RPMI-8226): 9.91E−6
TGI (A549/ATCC; A549/ATCC): 5.94E−6
Percent Growth (A549/ATCC; Log10 Concentration −4.0): −18%
Percent Growth (A549/ATCC; Log10 Concentration −5.0): −27%
Percent Growth (A549/ATCC; Log10 Concentration −6.0): 92%
Percent Growth (A549/ATCC; Log10 Concentration −7.0): 93%
Percent Growth (A549/ATCC; Log10 Concentration −8.0): 104%
TGI (HOP-62 [3]; HOP-62): 1.21E−5
Percent Growth (HOP-62 [3]; Log10 Concentration −4.0): −49%
Percent Growth (HOP-62 [3]; Log10 Concentration −5.0): 4%
Percent Growth (HOP-62 [3]; Log10 Concentration −6.0): 107%
Percent Growth (HOP-62 [3]; Log10 Concentration −7.0): 107%
Percent Growth (HOP-62 [3]; Log10 Concentration −8.0): 107%
Percent Growth (NCI-H226; Log10 Concentration −4.0): −5%
Percent Growth (NCI-H226; Log10 Concentration −5.0): 63%
Percent Growth (NCI-H226; Log10 Concentration −6.0): 75%
Percent Growth (NCI-H226; Log10 Concentration −7.0): 95%
Percent Growth (NCI-H226; Log10 Concentration −8.0): 97%
TGI (NCI-H226; NCI-H226): 8.53E−5
Percent Growth (NCI-H23; Log10 Concentration −4.0): −35%
Percent Growth (NCI-H23; Log10 Concentration −5.0): −37%
Percent Growth (NCI-H23; Log10 Concentration −6.0): 46%
Percent Growth (NCI-H23; Log10 Concentration −7.0): 91%
